Converted amounts (≈) assume the structure as drawn. Non-standard residues stand in square brackets, D forms with d. Residues, ends and D or L forms follow the SMILES beside them. ξ: configuration not given here. *: point of attachment. X3 = CC(=O)N[C@H]1[C@H]([C@H](OCCCCCN*)[C@H](O)CO)OC(C(=O)O)=C[C@@H]1NC(=N)N; X4 = CC(=O)N[C@H]1[C@H]([C@H](OCCCCCN*)[C@H](O)CO)OC(C(=O)O)=C[C@@H]1N=C(N)N; X1 = CC(=O)N[C@H]1[C@H]([C@H](OCCN*)[C@H](O)CO)OC(C(=O)O)=C[C@@H]1NC(=N)N; X2 = CC(=O)N[C@H]1[C@H]([C@H](OCCN*)[C@H](O)CO)OC(C(=O)O)=C[C@@H]1N=C(N)N; ξE = NC(CCC(=O)O)C(=O)O; NHBn = c1ccc(CN*)cc1; NHPentyl = CCCCCN*
Tests used:
Mus musculus [1] = organism: Mus musculus; assay: Number of survivors out of 7 tested mice at 10 days after infection with influenza A/PR/8/34 (H1N1) virus; assay type: functional
Mus musculus [2] = organism: Mus musculus; assay: Number of survivors out of 7 tested mice at 20 days after infection with influenza A/PR/8/34 (H1N1) virus; assay type: functional
Influenza A virus [3] = assay: Inhibitory concentration by Sialidase inhibitory assay; assay type: functional, organism-based
Influenza A virus [4] = assay: Inhibitory concentration by Plaque reduction assay; assay type: functional, organism-based
Mus musculus [5] = organism: Mus musculus; assay: Number of survivors out of 8 tested mice at 10 days after infection with influenza A/PR/8/34 (H1N1) virus; assay type: functional
Mus musculus [6] = organism: Mus musculus; assay: Number of survivors out of 8 tested mice at 20 days after infection, with influenza A/PR/8/34 (H1N1) virus; assay type: functional

Structure (SMILES) | Survival rate (Mus musculus [1]) | Survival rate (Mus musculus [2]) | IC50 (Influenza A virus [3]) [ng/mL] | IC50 (Influenza A virus [4]) [ng/mL] | Survival rate (Mus musculus [5]) | Survival rate (Mus musculus [6])
CC(=O)N[C@H]1[C@H]([C@H](OCCCCCNC(=O)CCC(N)C(=O)N[C@@H](CCC(N)=O)C(=O)N[C@@H](CCC(N)=O)C(=O)N[C@@H](CCC(N)=O)C(=O)CN[C@@H](CCC(N)=O)C(=O)N[C@@H](CCC(N)=O)C(=O)N[C@@H](CCC(N)=O)C(=O)N[C@@H](CCC(N)=O)C(=O)N[C@@H](CCC(N)=O)C(=O)N[C@@H](CCC(N)=O)C(=O)N[C@@H](CCC(N)=O)C(N)=O)[C@H](O)CO)OC(C(=O)O)=C[C@@H]1NC(=N)N (some centres undefined) | 7 | 7 | 161 (≈ 87.5 nM) | 0.072 (≈ 0.0391 nM) | – | –
CC(=O)NCCO[C@@H]([C@@H]1OC(C(=O)O)=C[C@H](N=C(N)N)[C@H]1NC(C)=O)[C@H](O)CO | – | – | 22 (≈ 52.7 nM) | 5.5 (≈ 13.2 nM) | – | –
CC(=O)N[C@H]1[C@H]([C@H](OCCCCCCCCCCNC(=O)CCC(N)C(=O)N[C@@H](CCC(N)=O)C(=O)N[C@@H](CCC(N)=O)C(=O)N[C@@H](CCC(N)=O)C(=O)CN[C@@H](CCC(N)=O)C(=O)N[C@@H](CCC(N)=O)C(=O)N[C@@H](CCC(N)=O)C(=O)N[C@@H](CCC(N)=O)C(=O)N[C@@H](CCC(N)=O)C(=O)N[C@@H](CCC(N)=O)C(=O)N[C@@H](CCC(N)=O)C(N)=O)[C@H](O)CO)OC(C(=O)O)=C[C@@H]1NC(=N)N (some centres undefined) | – | – | 62 (≈ 32.4 nM) | 2.1 (≈ 1.1 nM) | – | –
CC(=O)NCCCCCO[C@@H]([C@@H]1OC(C(=O)O)=C[C@H](N=C(N)N)[C@H]1NC(C)=O)[C@H](O)CO | – | – | 90 (≈ 196 nM) | 5.9 (≈ 12.8 nM) | – | –
CC(=O)N[C@H]1[C@H]([C@H](OCCNC(=O)CCC(N)C(=O)N[C@@H](CCC(N)=O)C(=O)N[C@@H](CCC(N)=O)C(=O)N[C@@H](CCC(N)=O)C(=O)CN[C@@H](CCC(N)=O)C(=O)N[C@@H](CCC(N)=O)C(=O)N[C@@H](CCC(N)=O)C(=O)N[C@@H](CCC(N)=O)C(=O)N[C@@H](CCC(N)=O)C(=O)N[C@@H](CCC(N)=O)C(=O)N[C@@H](CCC(N)=O)C(N)=O)[C@H](O)CO)OC(C(=O)O)=C[C@@H]1NC(=N)N (some centres undefined) | – | – | 114 (≈ 63.4 nM) | 0.066 (≈ 0.0367 nM) | – | –
CC(=O)N[C@H]1[C@H]([C@H](OCCNC(=O)CC[C@H](NC(=O)[C@H](CCC(=O)NCc2ccccc2)NC(=O)[C@H](CCC(=O)NCc2ccccc2)NC(=O)[C@H](CCC(=O)NCc2ccccc2)NC(=O)[C@@H](N)CCC(=O)NCc2ccccc2)C(=O)N[C@@H](CCC(N)=O)C(=O)N[C@@H](CCC(N)=O)C(=O)N[C@@H](CCC(N)=O)C(=O)N[C@@H](CCC(N)=O)C(=O)N[C@@H](CCC(N)=O)C(=O)N[C@@H](CCC(N)=O)C(=O)N[C@@H](CCC(N)=O)C(N)=O)[C@H](O)CO)OC(C(=O)O)=C[C@@H]1NC(=N)N (H-E(NHBn)E(NHBn)E(NHBn)E(NHBn)E(X1)QQQQQQQ-NH2) | – | – | 324 (≈ 143 nM) | 0.15 (≈ 0.066 nM) | – | –
CC(=O)N[C@H]1[C@H]([C@H](OCCCCCNC(=O)CC[C@H](NC(=O)[C@H](CCC(=O)NCc2ccccc2)NC(=O)[C@@H](N)CCC(=O)NCc2ccccc2)C(=O)N[C@@H](CCC(N)=O)C(=O)N[C@@H](CCC(N)=O)C(=O)N[C@@H](CCC(N)=O)C(=O)N[C@@H](CCC(N)=O)C(=O)N[C@@H](CCC(N)=O)C(=O)N[C@@H](CCC(N)=O)C(=O)N[C@@H](CCC(N)=O)C(=O)N[C@@H](CCC(N)=O)C(N)=O)[C@H](O)CO)OC(C(=O)O)=C[C@@H]1NC(=N)N (H-E(NHBn)E(NHBn)E(X3)QQQQQQQQ-NH2) | – | – | 63 (≈ 31.4 nM) | 0.028 (≈ 0.014 nM) | – | –
CCCCCNC(=O)CC[C@H](NC(=O)[C@H](CCC(=O)NCCCCC)NC(=O)[C@H](CCC(=O)NCCCCC)NC(=O)[C@@H](N)CCC(=O)NCCCCC)C(=O)N[C@@H](CCC(=O)NCCO[C@@H]([C@@H]1OC(C(=O)O)=C[C@H](N=C(N)N)[C@H]1NC(C)=O)[C@H](O)CO)C(=O)N[C@@H](CCC(N)=O)C(=O)N[C@@H](CCC(N)=O)C(=O)N[C@@H](CCC(N)=O)C(=O)N[C@@H](CCC(N)=O)C(=O)N[C@@H](CCC(N)=O)C(=O)N[C@@H](CCC(N)=O)C(=O)N[C@@H](CCC(N)=O)C(N)=O (H-E(NHPentyl)E(NHPentyl)E(NHPentyl)E(NHPentyl)E(X2)QQQQQQQ-NH2) | – | – | 585 (≈ 267 nM) | 0.1 (≈ 0.0456 nM) | – | –
CCCCCNC(=O)CC[C@H](NC(=O)[C@@H](N)CCC(=O)NCCCCC)C(=O)N[C@@H](CCC(=O)NCCCCCO[C@@H]([C@@H]1OC(C(=O)O)=C[C@H](N=C(N)N)[C@H]1NC(C)=O)[C@H](O)CO)C(=O)N[C@@H](CCC(N)=O)C(=O)N[C@@H](CCC(N)=O)C(=O)N[C@@H](CCC(N)=O)C(=O)N[C@@H](CCC(N)=O)C(=O)N[C@@H](CCC(N)=O)C(=O)N[C@@H](CCC(N)=O)C(=O)N[C@@H](CCC(N)=O)C(=O)N[C@@H](CCC(N)=O)C(N)=O (H-E(NHPentyl)E(NHPentyl)E(X4)QQQQQQQQ-NH2) | – | – | 113 (≈ 57.4 nM) | 0.32 (≈ 0.163 nM) | – | –
CC(=O)N[C@H]1[C@H]([C@H](OCCNC(=O)CCC(N)C(=O)N[C@@H](CCC(N)=O)C(=O)N[C@@H](CCC(N)=O)C(=O)N[C@@H](CCC(N)=O)C(N)=O)[C@H](O)CO)OC(C(=O)O)=C[C@@H]1NC(=N)N (some centres undefined) (H-[ξE](X1)QQQ-NH2) | – | – | 364 (≈ 410 nM) | 0.17 (≈ 0.191 nM) | – | –
CC(=O)N[C@H]1[C@H]([C@H](O)[C@H](O)CO)OC(C(=O)O)=C[C@@H]1NC(=N)N [ZANAMIVIR] | – | – | – | – | 1 | 0
